The test system of series [1] is Escherichia coli. The series can be described thus: Antibacterial activity against Escherichia coli transfected with Vibrio fischeri lux operon assessed as log reduction of bioluminescence at 20 uM incubated for 10 mins in dark followed by 36 J cm'-2 white light irradiation for 150 mins by luminometry relative to control. Format: functional.
For series [2], the system named is Escherichia coli. The series can be described thus: Antibacterial activity against Escherichia coli transfected with Vibrio fischeri lux operon assessed as log reduction of bioluminescence at 5 uM incubated for 10 mins in dark followed by 43.2 J cm'-2 white light irradiation for 180 mins by luminometry relative to control. Format: functional.
Series [3] concerns Escherichia coli. Description: Dark toxicity in recombinant Escherichia coli transfected with Vibrio fischeri lux operon at 20 uM after 10 mins by luminometry. Type of series: organism-based. The settings on record: in vivo.
The subject of series [4] is Escherichia coli. The series can be described thus: Dark toxicity in recombinant Escherichia coli transfected with Vibrio fischeri lux operon at 5 uM after 10 mins by luminometry. The settings on record: in vivo. Format: organism-based.
The test system of series [5] is Escherichia coli. Description: Antibacterial activity against Escherichia coli transfected with Vibrio fischeri lux operon assessed as log reduction of bioluminescence at 20 uM incubated for 10 mins in dark followed by 43.2 J cm'-2 white light irradiation for 180 mins by luminometry relative to control. Type of series: functional.
For series [6], the system named is Escherichia coli. The series can be described thus: Antibacterial activity against Escherichia coli assessed as log reduction of bioluminescence at 1 uM incubated for 30 mins followed by 10 J cm'-2 laser light irradiation relative to control. Type of series: functional.
The test system of the next series is Staphylococcus aureus. Description: Antibacterial activity against Staphylococcus aureus assessed as log reduction of bioluminescence at 1 uM incubated for 30 mins followed by 10 J cm'-2 laser light irradiation relative to control. Type of series: functional.

SMILES strings stand for the structures. Active and inactive are the calls of the source. No cut-off for these calls is given here. Where only a bound is given, the exact number is not on record here.

Consider `C[N+]1(C)CC2c3nc(c(-c4c(F)c(F)c(F)c(F)c4F)c4ccc([nH]4)c(-c4c(F)c(F)c(F)c(F)c4F)c4nc(c(-c5c(F)c(F)c(F)c(F)c5F)c5ccc([nH]5)c3-c3c(F)c(F)c(F)c(F)c3F)C=C4)C2C1.[I-]` (configuration not stated), for which the result in the series on Escherichia coli [1] was Active. Moreover, the FC with Escherichia coli [2] was determined as 0.77. Moreover, in the series on Escherichia coli [3], the Activity entry was “Non-toxic”.
For the molecule `CN1CC2c3nc(c(-c4c(F)c(F)c(F)c(F)c4F)c4ccc([nH]4)c(-c4c(F)c(F)c(F)c(F)c4F)c4nc(c(-c5c(F)c(F)c(F)c(F)c5F)c5ccc([nH]5)c3-c3c(F)c(F)c(F)c(F)c3F)C=C4)C2C1` (configuration not stated), the FC with Escherichia coli [2] is recorded as 0.57. In addition, the Activity result in the series with Escherichia coli [4] is “Non-toxic”.
For the molecule `C[N+]1(C)CC2c3nc(c(-c4c(F)c(F)c(F)c(F)c4F)c4ccc([nH]4)c(-c4c(F)c(F)c(F)c(F)c4F)c4nc(c(-c5c(F)c(F)c(F)c(F)c5F)c5[nH]c(c3-c3c(F)c(F)c(F)c(F)c3F)C3C[N+](C)(C)CC53)C=C4)C2C1.[I-].[I-]` (configuration not stated), the FC in the series on Escherichia coli [1] was 6.1; in the series with Escherichia coli [2], over 5. Also, the Activity result with Escherichia coli [3] was “Non-toxic”.
`CN1CC2c3nc(c(-c4c(F)c(F)c(F)c(F)c4F)c4ccc([nH]4)c(-c4c(F)c(F)c(F)c(F)c4F)c4nc(c(-c5c(F)c(F)c(F)c(F)c5F)c5[nH]c(c3-c3c(F)c(F)c(F)c(F)c3F)C3CN(C)CC53)C=C4)C2C1` (configuration not stated): the FC in the series on Escherichia coli [5] is recorded as 0.24. For the same molecule, in the series with Escherichia coli [3], the Activity result is reported as “Non-toxic”.
Turning to `CC1(C)Cc2cc3[nH]c(cc4nc(cc5[nH]c(cc1n2)cc5C(=O)NCCC[N+](C)(CCC[N+](C)(C)C)CCC[N+](C)(C)C)CC4(C)C)cc3C(=O)NCCC[N+](C)(CCC[N+](C)(C)C)CCC[N+](C)(C)C`, the FC in the series with Escherichia coli [6] and with Staphylococcus aureus was 6 each time.

The values are drawn from ChEMBL document CHEMBL3112559, “Photodynamic inactivation of bioluminescent Escherichia coli by neutral and cationic pyrrolidine-fused chlorins and isobacteriochlorins” (Bioorg Med Chem Lett, 2014).
